For 95 compounds, cytotoxicity results are on record in ChEMBL document CHEMBL3507680, “University of Dundee, Gates Library screen for HepG2 cell viability”.

This data set is described as follows: Human HepG2 cell viability assay in 384 well format. It counts as toxicity, cell-based. Details: dose 125 nL, time 70.5 hour; concentration not given beside the values. The conditions noted are these: HepG2 cells, read-out: Inhibition.

For the compound `CC(NCc1ccsc1)c1ccc(OCc2nccn2C)cc1` (stereo not given), the cytotoxicity at 70.5 h was -3.28%. Under `CC(NCc1cnn(C)c1)c1ccc(OCc2nccn2C)cc1` (stereo not given) stands -2.06%; under `CCn1cc(CNC2CCN(c3cccc(Cl)c3)C2)cn1` (stereo not given), -3.2%; under `Cc1cccc(CCC(=O)Nc2cccnc2N2CCC(O)CC2)c1`, 1%. Next, `Cc1cnn(CCC(=O)Nc2cccnc2N2CCC(CO)CC2)c1`: -1.8%. Under `Cc1ccc(C(=O)Nc2ccc(N3CCCC3)cn2)cc1C` stands 0.417%; under `CCNC(=O)NC(=O)CN1CCOC(c2ccc(Br)cc2)C1` (stereo not given), -3.93%; under `O=C(CCN1CCC(c2cc3ccccc3[nH]2)CC1)N1CCOCC1`, -1.25%. On to `CN(CC(=O)NCC(C)(C)c1ccc2c(c1)OCO2)c1cnccn1`, for which the cytotoxicity at 70.5 h was -12.3%. Next, `COCC(=O)N(C)Cc1ccc(OCc2cccs2)cc1`: -6.51%. With `Cn1cc(C(=O)N2CCO[C@@H]3CN(C4CCC4)C[C@@H]3C2)cn1`, the cytotoxicity at 70.5 h is -3.32%. Consider `CS(=O)(=O)NC1CCc2[nH]c(=O)ccc2C1` (stereo not given), for which the cytotoxicity at 70.5 h is -4.24%.

On to `CO[C@H]1CC[C@H]2[C@H]1OCCN2C(=O)CC1=CCCCC1`, for which the cytotoxicity at 70.5 h was -2.24%. Next, `CCO[C@@H]1CC[C@H]2[C@H]1OCCN2C(=O)CC1=CCCCC1`: -2.71%; `Cc1ncccc1NC(=O)[C@@H]1CCO[C@@H]2CCN(c3ccncn3)C[C@H]21`: -6.04%.

Turning to `CC(=O)N1CC[C@H]2OCC[C@@H](C(=O)Nc3cccnc3C)[C@H]2C1`, the cytotoxicity at 70.5 h was -3.55%.

Turning to `O=C(c1cccnc1)N1CCO[C@@H]2CNC[C@@H]21`, the cytotoxicity at 70.5 h is -4.67%. Next, `CCOCc1nn(C)c2c1CN(CCO)CC2`: -6.16%; `CN1CCCN(C(=O)c2nc3c(o2)CN(S(C)(=O)=O)C3)CC1`: -14.5%; `CC(C)NC(=O)N1CC[C@H]2N(C)CC[C@@]2(C(=O)Nc2cccnc2)CC1`: -10.8%. For the compound `Cc1nc(CN2CCC3(C2)CN(C(=O)c2ccc[nH]2)C3)cs1`, the cytotoxicity at 70.5 h is -5.84%. Next, `O=C(NCC1CC1)c1cc2c(s1)CCN2c1ncccn1`: -0.353%. Under `O=C(NCCN1CCCC1)c1cc2c(s1)CCN2c1ncccn1` stands -5.02%. Under `CCOCC1CN(C(=O)c2cccs2)Cc2cnn(CC3CC3)c21` (stereo not given) stands -6.77%; under `COCCN1CCN(S(C)(=O)=O)Cc2cccnc21`, -5.85%.

On to `O=c1ccc2c(n1CC1CC1)CCN(c1ncccn1)CC2`, for which the cytotoxicity at 70.5 h is -4.49%. Under `CCS(=O)(=O)N1CCN(C)c2ncccc2C1` stands -7.16%; under `CC(=O)N1CCO[C@@H]2CN(S(=O)(=O)c3ccc(C)cc3)CC[C@@H]2C1`, 11.2%; under `CCN(C(=O)c1nc2c(s1)CCCN2C(C)=O)C(C)C`, 2.41%. Next, `c1cc(-c2n[nH]cc2-c2ccnc(N3CCCCCC3)n2)ccn1`: 0.607%; `CC(C)[C@H](CO)Nc1nccc(-c2c[nH]nc2-c2ccncc2)n1`: -3.12%. On to `Cc1ncc(-c2ccnc(NCCc3ccc(F)cc3)n2)c(=O)[nH]1`, for which the cytotoxicity at 70.5 h was -12.9%. Next, `CC(=O)N1CCC(n2nccc2-c2cnc(NCCO)nc2)CC1`: -9.44%; `CNc1nc2c(s1)C(=O)CN(C(=O)NCCc1ccccc1)C2`: 17.6%; `CC[C@@H](CO)Nc1nccc(-c2cnc3sc(C)cn3c2=O)n1`: 15.2%.

Regarding `CC(=O)Nc1nc2c(s1)C1(CCCC1)Nc1ccccc1S2`, the cytotoxicity at 70.5 h is -3.55%. On to `Cc1ncc(-c2ccnc(N3CC[C@H](O)C3)n2)c(-c2cccnc2)n1`, for which the cytotoxicity at 70.5 h was -6.52%. With `CC(C)CNc1nccc(-c2cnc3sc(Cl)cn3c2=O)n1`, the cytotoxicity at 70.5 h is -6.64%.

Consider `O=c1[nH]c(-c2ccncc2)ncc1-c1ccnc(N2CCOCC2)n1`, for which the cytotoxicity at 70.5 h is -2.39%. Under `C[C@@H](CO)Nc1nccc(-c2cnc3sc(Cl)cn3c2=O)n1` stands -8.27%; under `CC(C)[C@H](NS(C)(=O)=O)C(=O)NCc1cc(-c2ccco2)n[nH]1`, -13.8%. Under `CCNc1nc(-c2cccnc2)c(-c2ccnc(NCCO)n2)s1` stands -13.3%; under `CC(=O)N1CCC(n2ccc(-c3cnc(NCC(C)C)nc3)n2)CC1`, -5.12%; under `CC[C@H](C)Nc1ncc(-c2ccn(C3CCN(C(C)=O)CC3)n2)cn1`, -5.16%. As for `Cc1csc2ncc(-c3ccnc(N4CCC[C@@H]4CO)n3)c(=O)n12`, the cytotoxicity at 70.5 h was -2.68%. Next, `Cc1cn2c(=O)c(-c3ccnc(NC4CCOCC4)n3)cnc2s1`: -4.12%; `CC[C@@H](C)[C@@H](N)C(=O)Nc1cccc(-c2cnc(NCCO)nc2)c1`: -7.48%; `c1cncc(-c2nc(C3CC3)ncc2-c2ccnc(N3CCCC3)n2)c1`: -2.86%. Take `CC(C)Nc1nc2c(s1)C(=O)CN(C(=O)NCc1ccccc1)C2`: the cytotoxicity at 70.5 h was 1.44%. Regarding `CC(C)CC(=O)N1CC(=O)c2sc(Nc3ccc(F)cc3)nc2C1`, the cytotoxicity at 70.5 h turned out to be 1.95%. Under `Cc1cc2nc(C3CCCCC3)c(-c3ccnc(NCCO)n3)cn2n1` stands -5.35%. Next, `CC(C)CC(=O)N1CC(=O)c2sc(Nc3ccc(C#N)cc3)nc2C1`: 0.0296%; `CC(C)CC(=O)N1CC(=O)c2sc(NCCc3ccccc3)nc2C1`: 0.452%. For `CC(=O)Nc1nc2c(s1)C1(CCN(C)CC1)Nc1ccccc1S2`, the cytotoxicity at 70.5 h worked out at 3.04%. On to `CNCC(=O)Nc1ccc(-c2cnc(NCCS(C)(=O)=O)nc2)cc1`, for which the cytotoxicity at 70.5 h was -0.605%. For `CC[C@H](C)[C@H](N)C(=O)Nc1nc(-c2cnc(N(C)CCO)nc2)cs1`, the cytotoxicity at 70.5 h is -1.04%. Next, `CS(=O)(=O)NCc1cc(-c2cc(F)cc(F)c2)nc(N2CCOCC2)n1`: -13.9%; `CN1CCCN(c2nccc(-c3c[nH]c4ccc(Br)cc34)n2)CC1`: 9.19%; `Cc1[nH]c2ccccc2c1-c1ccnc(NCCN2CCOCC2)n1`: 25.2%. Under `Cc1csc2ncc(-c3ccnc(N4CCCC[C@@H]4CO)n3)c(=O)n12` stands 20.9%; under `O=c1c(-c2ccnc(NC3CCOCC3)n2)cnc2sc(Cl)cn12`, 1.36%.

`Cc1ncc(-c2ccnc(N3CCCCC3)n2)c(=O)[nH]1`: the cytotoxicity at 70.5 h is -7.09%. Next, `Nc1ncc(-c2csc(NC(=O)C[C@H]3COCCN3)n2)cn1`: -6.96%; `CC(C)[C@H](N)CC(=O)Nc1nc(-c2cnc(N3CCOCC3)nc2)cs1`: -1.39%. Consider `O=C(C1CC(F)(F)C1)N1C[C@@H]2CN(CC3CC3)CCO[C@@H]2C1`, for which the cytotoxicity at 70.5 h worked out at 26%. Next, `CC(=O)N1CCO[C@@H]2CN(S(=O)(=O)c3cccnc3)C[C@@H]2C1`: 0.618%. Next, `CC(C)NC1CCc2[nH]c(=O)ccc2C1` (stereo not given): -3.78%; `Cc1occc1C(=O)NCC1OCCc2cn(C)nc21` (stereo not given): -3.82%. Next, `O=C(O)[C@]12CCCN(C3CCOC3)C[C@H]1CN(c1ncccn1)C2` (stereo not given in full): -2.93%.

Turning to `Cn1nc(COCC2CC2)c2c1CCN(Cc1cccs1)C2`, the cytotoxicity at 70.5 h is -4.53%.

On to `O=C(c1ccccc1)N1CCCC2(CCN2Cc2cccc(F)c2)C1` (stereo not given), for which the cytotoxicity at 70.5 h is -9.02%.

Consider `COc1cc(N2CCC3(CCN(Cc4nccs4)CC3)C2)ncn1`, for which the cytotoxicity at 70.5 h stood at 30.8%. Under `COCCN1CCOCC12CCN(c1cnccn1)CC2` stands -6.94%. Under `CCN1CCOCC12CCN(c1cnccn1)CC2` stands -7.58%; under `Cc1noc(C)c1CN1CCOCC12CCN(c1cnccn1)CC2`, -6.5%. Under `Cc1noc(C)c1CN1CCOCC12CCN(c1nccs1)CC2` stands -8.54%; under `CS(=O)(=O)N1CCc2ccc(=O)n(CCN3CCCC3)c2CC1`, -6.85%.

With `CN(C)CCn1c2c(ccc1=O)CC(NC(=O)NC1CCCC1)CC2` (stereo not given), the cytotoxicity at 70.5 h is -6.88%.

Take `CN1CCN(C2COC3(CCN(c4ccc(C#N)cc4)CC3)C2)CC1` (stereo not given): the cytotoxicity at 70.5 h is -6.07%.

As for `CN(C)CCn1c2c(ccc1=O)CC(NC(=O)c1ccsc1)CC2` (stereo not given), the cytotoxicity at 70.5 h is 11.3%. Under `CCN1CCn2c(-c3cccc(F)c3)cnc2C12CCN(C(C)=O)CC2` stands 2.55%. `c1ccc(OCC2C[C@@H]3[C@@H](C2)OCCN3Cc2ccoc2)nc1` (stereo not given in full): the cytotoxicity at 70.5 h was -0.172%. Next, `COCCN1CCO[C@@H]2CN(S(=O)(=O)c3cccnc3)C[C@@H]2C1`: 3.84%. In the case of `CC(C)N1CCC(N2CCC(C(=O)N(C)C)CC2)CC1`, the cytotoxicity at 70.5 h amounted to 1.65%. Next, `Cc1oncc1C(=O)N1CC[C@H]2[C@H](C[C@@H](CN3CCCC3)N2C)C1`: -2.32%. Under `CNC(=O)[C@@H]1C[C@H]2CN(Cc3csc(C)n3)C[C@H]2N1C(C)C` stands -4.84%; under `Cc1ncccc1NC(=O)[C@@H]1CCO[C@@H]2CCN(c3ccccc3)C[C@@H]21`, -3.01%; under `CCN1CCC(N2CCC(C(=O)N(C)C)CC2)CC1`, -5.59%. On to `Cc1noc(C)c1CN1C[C@H]2CN(Cc3cccc(F)c3)C[C@H]2C1`, for which the cytotoxicity at 70.5 h was -1.37%. As to `COCCN1CCC2(CC1)CC(NCc1ccc(C)s1)c1ccccc12` (stereo not given), the cytotoxicity at 70.5 h stood at 2.38%. Next, `Cc1noc(C)c1CN1CCO[C@H]2CN(Cc3cccc(F)c3)C[C@H]21`: -13.7%.

For the compound `CN(C)C(=O)COCC1CN(Cc2ccco2)Cc2ncn(C)c21` (stereo not given), the cytotoxicity at 70.5 h was -0.299%.

With `COCCN1Cc2nccn2CC(COCc2csc(C)n2)C1` (stereo not given), the cytotoxicity at 70.5 h is -1.7%. Under `CN(C)CCN1CCO[C@H]2CN(C(=O)c3ccsc3)C[C@H]21` stands -6.87%; under `CN(C)C1CCC2(CCN(Cc3cccnc3)CC2)c2ccccc21` (stereo not given), -3.39%.
